Experimental data: patent publication US11919883B2, “Metalloenzyme inhibitor compounds” (Ji Xing Pharmaceuticals Hong Kong Limited, priority 2016, dated 2024)

Columns and labels:
[1] = target: T1, recombinant human CYP11B1 (Homo sapiens, UniProt P15538); assay: CYP11B1 enzyme assay, enzyme enriched microsomes from V79-4 cells, cortisol by LC-MS; type: biochemical; details: IC50 ranges; run at Km of 11-deoxycortisol; read-out: hCYP11B1 IC50
T1 construct: made in house; host or cells: V79-4 cells (enzyme enriched microsomal fraction of cell lysates)
T1 sequence (P15538 25-503): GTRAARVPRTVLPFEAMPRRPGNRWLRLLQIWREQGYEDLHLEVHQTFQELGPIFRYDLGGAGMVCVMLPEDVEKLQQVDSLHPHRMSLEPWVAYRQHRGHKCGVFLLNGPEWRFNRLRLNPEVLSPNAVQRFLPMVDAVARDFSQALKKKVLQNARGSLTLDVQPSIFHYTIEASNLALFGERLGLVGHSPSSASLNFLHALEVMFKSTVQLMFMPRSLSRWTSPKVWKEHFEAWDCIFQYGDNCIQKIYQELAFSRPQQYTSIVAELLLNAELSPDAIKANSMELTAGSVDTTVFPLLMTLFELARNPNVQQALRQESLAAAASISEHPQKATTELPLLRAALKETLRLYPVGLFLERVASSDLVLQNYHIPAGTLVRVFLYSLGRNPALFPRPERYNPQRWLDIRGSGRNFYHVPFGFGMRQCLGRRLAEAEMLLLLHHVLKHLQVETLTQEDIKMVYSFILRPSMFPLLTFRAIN
Method: (§1) An enzyme enriched microsomal fraction was prepared from cellular lysates and subsequently used as the enzyme source for determining inhibitor IC50s. […] Enzyme assays for inhibitor screening employed CYP11B2 and CYP11B1 enzyme enriched microsomes and were run at the Km of the respective substrates. Products of the enzyme reactions, aldosterone for CYP11B2 or cortisol for CYP11B1, were measured by LC-MS. Assays were run under conditions of less than 20% substrate turnover. Inhibitor IC50s were generated by determining the product formation in the absence or presence of inhibitor at various concentrations. In the absence of the test compound, the product formed (Pt) in each data set was defined as 100% activity. In the absence of enzyme, the product formed (Pb) in each data set was defined as 0% activity. The percent activity in the presence of each inhibitor was calculated according to the following equation: % activity=(P−Pb)/(Pt−Pb), where P=the product formed in the presence of the inhibitor.

[2] = target: T2, recombinant human CYP11B2 (Homo sapiens, UniProt P19099); assay: CYP11B2 enzyme assay, enzyme enriched microsomes from V79-4 cells, aldosterone by LC-MS; type: biochemical; details: IC50 ranges; run at Km of 11-deoxycorticosterone; read-out: hCYP11B2 IC50
T2 construct: made in house; host or cells: V79-4 cells (enzyme enriched microsomal fraction of cell lysates)
T2 sequence (P19099 25-503): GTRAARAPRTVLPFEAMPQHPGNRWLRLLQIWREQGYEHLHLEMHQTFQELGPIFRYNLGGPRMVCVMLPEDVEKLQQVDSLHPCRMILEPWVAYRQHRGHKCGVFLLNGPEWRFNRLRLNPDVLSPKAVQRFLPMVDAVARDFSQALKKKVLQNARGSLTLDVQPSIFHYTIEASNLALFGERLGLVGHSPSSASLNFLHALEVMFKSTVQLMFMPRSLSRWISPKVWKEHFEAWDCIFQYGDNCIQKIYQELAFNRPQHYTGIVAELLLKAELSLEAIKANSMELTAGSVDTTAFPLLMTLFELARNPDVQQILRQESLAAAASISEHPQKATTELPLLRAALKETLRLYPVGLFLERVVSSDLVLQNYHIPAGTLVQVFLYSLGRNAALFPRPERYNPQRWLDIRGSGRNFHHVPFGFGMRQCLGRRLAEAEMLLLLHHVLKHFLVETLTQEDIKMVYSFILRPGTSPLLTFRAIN
Method: as §1

SMILES	IC50 [1] [nM]	IC50 [2] [nM]
N#Cc1ccc2nc(-c3cncnc3)n(C3CC3)c2c1 [Example 3, 1-Cyclopropyl-2-(pyrimidin-5-yl)-1H-benzo[d]imidazole-6-carbonitrile]	1000 to 10000	1 to 100
CCc1ncncc1-c1nc2ccc(F)cc2n1C1CC1 [Example 5, 1-Cyclopropyl-2-(4-ethylpyrimidin-5-yl)-6-fluoro-1H-benzo[d]imidazole]	1000 to 10000	1 to 100
COc1ncncc1-c1nc2ccc(F)cc2n1C1CC1 [Example 6, 1-Cyclopropyl-6-fluoro-2-(4-methoxypyrimidin-5-yl)-1H-benzo[d]imidazole]	> 10000	100 to 1000
CCc1ncncc1-c1nc2ccc(C#N)cc2n1C1CC1 [Example 8, 1-Cyclopropyl-2-(4-ethylpyrimidin-5-yl)-1H-benzo[d]imidazole-6-carbonitrile]	1000 to 10000	1 to 100
Fc1ccc2nc(-c3cncnc3Cl)n(C3CC3)c2c1 [Example 9, 2-(4-Chloropyrimidin-5-yl)-1-cyclopropyl-6-fluoro-1H-benzo[d]imidazole]	1000 to 10000	1 to 100
N#Cc1ncncc1-c1nc2ccc(F)cc2n1C1CC1 [Example 10, 5-(1-Cyclopropyl-6-fluoro-1H-benzo[d]imidazol-2-yl)pyrimidine-4-carbonitrile]	1000 to 10000	1 to 100
CNc1ncncc1-c1nc2ccc(F)cc2n1C1CC1 [Example 12, 5-(1-Cyclopropyl-6-fluoro-1H-benzo[d]imidazol-2-yl)-N-methylpyrimidin-4-amine]	100 to 1000	1 to 100
CCc1ncncc1-c1nc2ccc(F)cc2n1CC [Example 16, 1-Ethyl-2-(4-ethylpyrimidin-5-yl)-6-fluoro-1H-benzo[d]imidazole]	1000 to 10000	100 to 1000
CCc1ncncc1-c1nc2ccc(F)c(F)c2n1C1CC1 [Example 17, 1-Cyclopropyl-2-(4-ethylpyrimidin-5-yl)-6,7-difluoro-1H-benzo[d]imidazole]	1000 to 10000	1 to 100
CCn1c(-c2cncnc2C)nc2ccc(C#N)cc21 [Example 18, 1-Ethyl-2-(4-methylpyrimidin-5-yl)-1H-benzo[d]imidazole-6-carbonitrile]	1000 to 10000	1 to 100
Cc1ncc(-c2nc3ccc(F)cc3n2C2CC2)cn1 [Example 20, 1-Cyclopropyl-6-fluoro-2-(2-methylpyrimidin-5-yl)-1H-benzo[d]imidazole]	> 10000	1000 to 10000
Cc1ncncc1-c1nc2ccc(C#N)cc2n1C1CC1 [Example 21, 1-Cyclopropyl-2-(4-methylpyrimidin-5-yl)-1H-benzo[d]imidazole-6-carbonitrile]	1000 to 10000	1 to 100
CC(C)c1ncncc1-c1nc2cc(F)c(F)cc2n1C1CC1 [Example 22, 1-Cyclopropyl-5,6-difluoro-2-(4-isopropylpyrimidin-5-yl)-1H-benzo[d]imidazole]	100 to 1000	1 to 100
Clc1ccc2nc(-c3cncnc3)n(C3CC3)c2c1 [Example 23, 6-Chloro-1-cyclopropyl-2-(pyrimidin-5-yl)-1H-benzo[d]imidazole]	1000 to 10000	1 to 100
CC(C)c1ncncc1-c1nc2ccc(Cl)cc2n1C1CC1 [Example 24, 6-Chloro-1-cyclopropyl-2-(4-isopropylpyrimidin-5-yl)-1H-benzo[d]imidazole]	1000 to 10000	1 to 100
COc1ccc2nc(-c3cncnc3)n(C3CC3)c2c1 [Example 25, 1-Cyclopropyl-6-methoxy-2-(pyrimidin-5-yl)-1H-benzo[d]imidazole]	> 10000	100 to 1000
CS(=O)(=O)c1ccc2nc(-c3cncnc3)n(C3CC3)c2c1 [Example 26, 1-Cyclopropyl-6-(methylsulfonyl)-2-(pyrimidin-5-yl)-1H-benzo[d]imidazole]	> 10000	1000 to 10000
CC(C)c1ncncc1-c1nc2ccc(C#N)cc2n1C1CC1 [Example 28, 1-Cyclopropyl-2-(4-isopropylpyrimidin-5-yl)-1H-benzo[d]imidazole-6-carbonitrile]	1000 to 10000	1 to 100
Cc1ncnc(C)c1-c1nc2ccc(F)cc2n1C1CC1 [Example 29, 1-Cyclopropyl-2-(4,6-dimethylpyrimidin-5-yl)-6-fluoro-1H-benzo[d]imidazole]	> 10000	> 10000
COCCNc1ncncc1-c1nc2cc(F)c(F)cc2n1C1CC1 [Example 33, 5-(1-Cyclopropyl-5,6-difluoro-1H-benzo[d]imidazol-2-yl)-N-(2-methoxyethyl)pyrimidin-4-amine]	1000 to 10000	1 to 100
CC(C)(C)Nc1ncncc1-c1nc2cc(F)c(F)cc2n1C1CC1 [Example 34, N-(tert-Butyl)-5-(1-cyclopropyl-5,6-difluoro-1H-benz[d]imidazol-2-yl)pyrimidin-4-amine]	100 to 1000	1 to 100

The remaining lines, values ahead:

IC50 [1] [nM]	IC50 [2] [nM]	SMILES
1000 to 10000	100 to 1000	Fc1ccc2nc(-c3cncnc3)n(C3CC3)c2c1F [Example 2, 1-Cyclopropyl-6,7-difluoro-2-(pyrimidin-5-yl)-1H-benzo[d]imidazole]
1000 to 10000	1 to 100	Cc1ncncc1-c1nc2ccc(F)cc2n1C1CC1 [Example 4, 1-Cyclopropyl-6-fluoro-2-(4-methylpyrimidin-5-yl)-1H-benzo[d]imidazole]
1000 to 10000	1 to 100	Fc1cc2nc(-c3cncnc3)n(C3CC3)c2cc1F [Example 7, 1-Cyclopropyl-5,6-difluoro-2-(pyrimidin-5-yl)-1H-benzo[d]imidazole]
1000 to 10000	1 to 100	CCc1ncncc1-c1nc2ccc(Cl)cc2n1C1CC1 [Example 11, 6-Chloro-1-cyclopropyl-2-(4-ethylpyrimidin-5-yl)-1H-benzo[d]imidazole]
1000 to 10000	1 to 100	CC(C)c1ncncc1-c1nc2ccc(F)cc2n1C1CC1 [Example 13, 1-Cyclopropyl-6-fluoro-2-(4-isopropylpyrimidin-5-yl)-1H-benzo[d]imidazole]
1000 to 10000	1 to 100	CCCc1ncncc1-c1nc2ccc(F)cc2n1C1CC1 [Example 14, 1-Cyclopropyl-6-fluoro-2-(4-propylpyrimidin-5-yl)-1H-benzo[d]imidazole]
1000 to 10000	1 to 100	Fc1ccc2nc(-c3cncnc3C(F)F)n(C3CC3)c2c1 [Example 15, 1-Cyclopropyl-2-(4-(difluoromethyl)pyrimidin-5-yl)-6-fluoro-1H-benzo[d]imidazole]
> 10000	1000 to 10000	CC(=O)NCc1ncncc1-c1nc2ccc(F)cc2n1C1CC1 [Example 19, N-((5-(1-Cyclopropyl-6-fluoro-1H-benzo[d]imidazol-2-yl)pyrimidin-4-yl)methyl)acetamide]
100 to 1000	1 to 100	CNc1ncncc1-c1nc2cc(F)c(F)cc2n1C1CC1 [Example 31, 5-(1-Cyclopropyl-5,6-difluoro-1H-benzo[d]imidazol-2-yl)-N-methylpyrimidin-4-amine]
1000 to 10000	1 to 100	CN(C)c1ncncc1-c1nc2cc(F)c(F)cc2n1C1CC1 [Example 32, 5-(1-Cyclopropyl-5,6-difluoro-1H-benzo[d]imidazol-2-yl)-N,N-dimethylpyrimidin-4-amine]
